Data taken from US20210214364A1, “sGC STIMULATORS” (Cyclerion Therapeutics, Inc., priority 2013, published 2021).

biological target: T1, soluble guanylate cyclase (sGC) endogenously expressed in HEK293 cells (Homo sapiens, UniProt Q02108+Q02153); experiment: sGC-HEK-cGMP assay with LC/MS detection (whole cell); format: cell-based; conditions: 10 μM DETA-NONOate, 20 min, concentration eliciting 50% of high control response (30 μM Compound Y), read-out: sGC_HEK_LC MS EC50 Abs
T1 construct: endogenously expressing soluble guanylate cyclase (sGC); endogenous in cells; host or cells: HEK293
T1 sequence (Q02153 1-619): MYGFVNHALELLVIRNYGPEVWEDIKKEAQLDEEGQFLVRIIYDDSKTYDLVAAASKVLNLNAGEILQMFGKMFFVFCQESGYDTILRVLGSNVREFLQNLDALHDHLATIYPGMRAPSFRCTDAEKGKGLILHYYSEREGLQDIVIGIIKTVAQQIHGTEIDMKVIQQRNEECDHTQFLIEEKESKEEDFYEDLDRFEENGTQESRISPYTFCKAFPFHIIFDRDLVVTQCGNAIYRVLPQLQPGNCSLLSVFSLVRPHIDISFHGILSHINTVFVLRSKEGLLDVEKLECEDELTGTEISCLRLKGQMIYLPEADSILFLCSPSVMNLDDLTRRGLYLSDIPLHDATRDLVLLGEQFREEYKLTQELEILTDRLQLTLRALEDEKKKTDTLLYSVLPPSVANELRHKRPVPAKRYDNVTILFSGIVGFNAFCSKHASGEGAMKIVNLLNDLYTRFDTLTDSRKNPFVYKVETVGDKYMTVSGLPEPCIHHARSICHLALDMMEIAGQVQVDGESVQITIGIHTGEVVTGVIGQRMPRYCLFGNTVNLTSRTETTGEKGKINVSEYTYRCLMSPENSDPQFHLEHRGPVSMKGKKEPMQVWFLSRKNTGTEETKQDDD
T1 sequence (Q02108 1-690): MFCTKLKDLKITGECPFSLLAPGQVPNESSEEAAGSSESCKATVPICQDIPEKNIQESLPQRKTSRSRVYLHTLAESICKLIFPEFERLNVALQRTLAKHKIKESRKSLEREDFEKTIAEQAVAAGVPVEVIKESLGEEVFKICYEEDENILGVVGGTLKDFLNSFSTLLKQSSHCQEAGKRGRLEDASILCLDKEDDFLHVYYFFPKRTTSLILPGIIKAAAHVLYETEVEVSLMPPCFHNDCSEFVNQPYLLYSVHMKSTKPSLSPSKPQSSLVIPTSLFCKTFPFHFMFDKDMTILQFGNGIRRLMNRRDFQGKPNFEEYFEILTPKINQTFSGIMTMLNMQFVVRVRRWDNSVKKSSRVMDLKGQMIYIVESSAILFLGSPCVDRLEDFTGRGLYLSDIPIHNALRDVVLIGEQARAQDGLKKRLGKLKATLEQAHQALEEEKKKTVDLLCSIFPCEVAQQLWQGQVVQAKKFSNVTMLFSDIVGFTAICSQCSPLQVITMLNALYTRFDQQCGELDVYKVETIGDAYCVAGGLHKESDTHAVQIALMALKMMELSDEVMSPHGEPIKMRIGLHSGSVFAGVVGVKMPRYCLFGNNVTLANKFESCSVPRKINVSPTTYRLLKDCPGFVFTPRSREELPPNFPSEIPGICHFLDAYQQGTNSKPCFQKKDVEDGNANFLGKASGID
Protocol: Example 2: Biological Activity Measurement by the sGC-HEK-cGMP Assay, with LC/MS Detection
Human embryonic kidney cells (HEK293), endogenously expressing soluble guanylate cyclase (sGC), were used to evaluate the activity of test compounds. Compounds stimulating the sGC enzyme should cause an increase in the intracellular concentration of cGMP. HEK 293 cells were seeded in Dulbecco's Modification of Eagle's Medium supplemented with fetal bovine serum (10% final) and penicillin (100 U/mL)/streptomycin (100 μg/mL) in a 50 μL volume at a density of 1.5×10^4 cells/well in a poly-D-lysine coated 384 well flat bottom plate. Cells were incubated overnight at 37° C. in a humidified chamber with 5% CO2. Medium was aspirated and cells were washed with 1× Hank's Buffered Saline Salt Solution (50 μL). Cells were then incubated for 15 minutes at 37° C. with 50 μL of a 0.5 mM 3-isobutyl-1-methylxanthine (IBMX) solution. Test article and Diethylenetriamine NONOate (DETA-NONOate) solutions (x […] concentration for test article solution and 10 μM concentration for DETA-NONOate solution; wherein x is one of the following concentrations);
were then added to the assay mixture and the resulting mixture incubated at 37° C. for 20 minutes. After the 20 minute incubation, the assay mixture was aspirated and 10% acetic acid containing 150 ng/mL+3-cGMP (internal standard for LCMS) (50 μL) was added to the cells. The plate was incubated at 4° C. for 30 minutes in the acetic acid solution to stop the reaction and lyse the cells. The plates were then centrifuged at 1,000 g for 3 minutes at 4° C. and the supernatant transferred to a clean reaction plate for LCMS analysis.
cGMP concentrations were determined from each sample using the LCMS conditions below (Table 2) and calculated standard curve. The standard curve was prepared in 10% acetic acid with 150 ng/mL+3cGMP (isotopically labelled cGMP with a weight 3 units higher than wild type) with the following final concentrations of cGMP in ng/mL: 1, 5, 10, 50, 100, 250, 500, 1000, 2000.
Data were normalized to a high control using the following equation: 100*(Sample−Low Control)/(High Control−Low Control), where the low control is the average of 16 samples treated with 1% DMSO, and the high control is the average of 16 samples treated with 30 μM of Compound Y depicted below. Data were fit using a 4-parameter fit (log(agonist) vs. response variable slope) using GraphPad Prism Software v.5. n=2 for all compounds. The Absolute EC50 was interpolated from the curve fit and is defined as the concentration at which a given compound elicits 50% of the high control response. Compounds failing to elicit a minimum response of 50% are reported as >30 μM. For compounds run in duplicate or n higher than 2, the result herein given is the geometric mean of the several results obtained.

COc1cc(-c2ncc(F)c(NC(c3nnn[nH]3)C(C)C)n2)nn1Cc1ccccc1F (stereo not drawn) [Compound I-65] and COc1cc(-c2ncc(F)c(NC[C@@H](C(=O)O)C(C)C)n2)nn1Cc1ccccc1F [Compound I-60] cannot be ordered by EC50: no less than 1000 nM for the first, 101 to 1000 nM for the second.

COc1cc(-c2nnc3c(n2)NC(=O)C3(C)C)nn1Cc1ccccc1F [Compound I-16] and COc1cc(-c2nc(N)c3c(n2)NC(=O)C3(C)C(N)=O)nn1Cc1ccccc1F (stereo not drawn) [Compound I-2] fall in the same range of EC50: 101 to 1000 nM for the first, 101 to 1000 nM for the second.

COc1cc(-c2nc(N)c3c(n2)NC(=O)C3(C)C(N)=O)nn1CCC(F)(F)F (stereo not drawn) [Compound I-7] and CCOC(=O)C1(C)C(=O)Nc2nc(-c3cc(OC)n(CCC(F)(F)F)n3)nc(N)c21 (stereo not drawn) [Compound I-14] cannot be ordered by EC50: no less than 1000 nM for the first, no less than 1000 nM for the second.

CCOC(=O)C1(C)C(=O)Nc2nc(-c3nc(OC)n(Cc4ccccc4F)n3)nc(N)c21 (stereo not drawn) [Compound I-30] and COc1nc(-c2nc(N)c3c(n2)NC(=O)C3(C)C(N)=O)nn1Cc1ccccc1F (stereo not drawn) [Compound I-17] cannot be ordered by EC50: no less than 1000 nM for the first, no less than 1000 nM for the second.

COc1cc(-c2ncc(F)c(N(C)CC3(C(=O)O)CCCC3)n2)nn1Cc1ccccc1F [Compound I-66] and COc1cc(-c2ncc(F)c(N3CCC(C)(C(=O)O)CC3)n2)nn1Cc1ccccc1F [Compound I-68] fall in the same range of EC50: 101 to 1000 nM for the first, 101 to 1000 nM for the second.

COc1cc(-c2ncc(NC(=O)OCc3ccccc3)c(=O)[nH]2)nn1Cc1ccccc1F [Compound I-47] and COc1cc(-c2ncc(F)c(=O)[nH]2)nn1Cc1ccccc1F [Compound I-5] cannot be ordered by EC50: no less than 1000 nM for the first, no less than 1000 nM for the second.

CC1(C(N)=O)C(=O)Nc2nc(-c3cc(O)n(Cc4ccccc4F)n3)nc(N)c21 (stereo not drawn) [Compound I-48] and CCOc1cc(-c2nc(N)c3c(n2)NC(=O)C3(C)C(N)=O)nn1Cc1ccccc1F (stereo not drawn) [Compound I-28] cannot be ordered by EC50: no less than 1000 nM for the first, no less than 1000 nM for the second.

COc1cc(-c2nccc(N)n2)nn1Cc1ccccc1F [Compound I-6] and COc1cc(-c2ncc(F)c(N(C)C)n2)nn1Cc1ccccc1F [Compound I-12] cannot be ordered by EC50: no less than 1000 nM for the first, no less than 1000 nM for the second.

COc1cc(-c2ncc(F)c(NCCS(N)(=O)=O)n2)nn1Cc1ccccc1F [Compound I-69] and COc1cc(-c2ncc(F)c(NCCO)n2)nn1Cc1ccccc1F [Compound I-13] cannot be ordered by EC50: no less than 1000 nM for the first, no less than 1000 nM for the second.

COC(=O)NC1(C)C(=O)Nc2nc(-c3cc(OC)n(Cc4ccccc4F)n3)[nH]c(=O)c21 (stereo not drawn) [Compound I-26] and COc1cc(-c2nc3c(c(=O)[nH]2)C(C)(C(=O)NC2CC2)C(=O)N3)nn1Cc1ccccc1F (stereo not drawn) [Compound I-43] cannot be ordered by EC50: no less than 1000 nM for the first, no less than 1000 nM for the second.

COc1cc(-c2nc3c(c(=O)[nH]2)=C(C)C(=O)N=3)nn1Cc1ccccc1F [Compound I-15] and COc1cc(-c2ncc(F)c(NCC(=O)O)n2)nn1Cc1ccccc1F [Compound I-9] cannot be ordered by EC50: no less than 1000 nM for the first, no less than 1000 nM for the second.

COc1cc(-c2ncc(F)c(N3CCCCC3)n2)nn1Cc1ccccc1F [Compound I-31] and COc1cc(-c2ncc(F)c(N3CCOCC3)n2)nn1Cc1ccccc1F [Compound I-23] cannot be ordered by EC50: no less than 1000 nM for the first, no less than 1000 nM for the second.

COc1cc(-c2ncc(F)c(NCC(O)CO)n2)nn1Cc1ccccc1F (stereo not drawn) [Compound I-64] and COc1cc(-c2ncc(F)c(NCC(N)=O)n2)nn1Cc1ccccc1F [Compound I-11] cannot be ordered by EC50: no less than 1000 nM for the first, no less than 1000 nM for the second.

CC1(C(=O)NC2CC2)C(=O)Nc2nc(-c3cc(OC(F)F)n(CCC(F)(F)C(F)(F)F)n3)nc(N)c21 (stereo not drawn) [Compound I-50] and CCOC(=O)C1(C)C(=O)Nc2nc(-c3cc(OC(F)F)n(CCC(F)(F)C(F)(F)F)n3)nc(N)c21 (stereo not drawn) [Compound I-57] cannot be ordered by EC50: no less than 1000 nM for the first, no less than 1000 nM for the second.

Fc1cnc(-c2cc(OC(F)F)n(Cc3cccc(F)c3F)n2)nc1 [Compound I-59] and CC1(C)C(=O)Nc2nc(-c3cc(OC(F)F)n(Cc4cccc(F)c4F)n3)nc(N)c21 [Compound I-34] cannot be ordered by EC50: no less than 1000 nM for the first, 101 to 1000 nM for the second.

CCOC(=O)C1(C)C(=O)Nc2nc(-c3cc(OC(C)C)n(Cc4ccccc4F)n3)nc(N)c21 (stereo not drawn) [Compound I-8] and CCOC(=O)C1(C)C(=O)Nc2nc(-c3nn(Cc4ccccc4F)c(OC)c3C)nc(N)c21 (stereo not drawn) [Compound I-45] cannot be ordered by EC50: no less than 1000 nM for the first, 101 to 1000 nM for the second.

COc1cc(-c2ncc(F)c(N3CC(C)C(C(=O)O)C3)n2)nn1Cc1ccccc1F (stereo not drawn) [Compound I-36] and COc1cc(-c2ncc(F)c(N3CCC(C(=O)O)(C(C)C)CC3)n2)nn1Cc1ccccc1F [Compound I-67] cannot be ordered by EC50: no less than 1000 nM for the first, 101 to 1000 nM for the second.

CCOC(=O)C1(C)C(=O)Nc2nc(-c3nn(Cc4ccccc4F)c(=O)n3C)nc(N)c21 (stereo not drawn) [Compound I-29] and CCOC(=O)C1(C)C(=O)Nc2nc(-c3nn(Cc4ccccc4F)c(=O)[nH]3)nc(N)c21 (stereo not drawn) [Compound I-21] cannot be ordered by EC50: no less than 1000 nM for the first, no less than 1000 nM for the second.

COc1cc(-c2ncc(F)c(NCCCCC(=O)O)n2)nn1Cc1ccccc1F [Compound I-32] and COc1cc(-c2ncc(F)c(NCc3cc(=O)[nH]o3)n2)nn1Cc1ccccc1F [Compound I-19] cannot be ordered by EC50: 101 to 1000 nM for the first, no less than 1000 nM for the second.

CC1(C(=O)NC2CC2)C(=O)Nc2nc(-c3cc(OC(F)F)n(Cc4cccc(F)c4F)n3)ncc21 (stereo not drawn) [Compound I-40] and CC1(C(=O)NC2CC2)C(=O)Nc2nc(-c3cc(OC(F)F)n(Cc4cccc(F)c4F)n3)nc(N)c21 (stereo not drawn) [Compound I-54] fall in the same range of EC50: 101 to 1000 nM for the first, 101 to 1000 nM for the second.

COc1c(C#N)c(-c2nc(N)c3c(n2)NC(=O)C3(C)C(N)=O)nn1Cc1ccccc1F (stereo not drawn) [Compound I-25] and COc1c(C)c(-c2nc(N)c3c(n2)NC(=O)C3(C)C(N)=O)nn1Cc1ccccc1F (stereo not drawn) [Compound I-27] cannot be ordered by EC50: 101 to 1000 nM for the first, no less than 1000 nM for the second.

CC1(C(N)=O)C(=O)Nc2nc(-c3cc(OC(F)F)n(Cc4cccc(F)c4F)n3)nc(N)c21 (stereo not drawn) [Compound I-53] and CCOC(=O)C1(C)C(=O)Nc2nc(-c3cc(OC(F)F)n(Cc4ccc(F)cc4F)n3)nc(N)c21 (stereo not drawn) [Compound I-55] fall in the same range of EC50: 101 to 1000 nM for the first, 101 to 1000 nM for the second.

COc1nc(-c2nc(N)c3c(n2)NC(=O)C3(C)C(=O)NC2CC2)nn1Cc1ccccc1F (stereo not drawn) [Compound I-37] and COc1cc(-c2ncc(F)c(N3CCNC(=O)C3)n2)nn1Cc1ccccc1F [Compound I-62] cannot be ordered by EC50: no less than 1000 nM for the first, no less than 1000 nM for the second.

C[C@H]1CCCN(c2nc(-c3cc(OC(F)F)n(Cc4ccccc4F)n3)ncc2F)[C@H]1C(=O)O [Compound I-42] and COc1cc(-c2ncc(F)c(N3CCC(O)(CO)CC3)n2)nn1Cc1ccccc1F [Compound I-61] cannot be ordered by EC50: 101 to 1000 nM for the first, no less than 1000 nM for the second.
